Assay results published in patent US20100136541A1, “IDENTIFICATION AND VERIFICATION OF METHYLATION MARKER SEQUENCES” (Siemens Healthcare Diagnostics Inc., priority 2003, published 2010).

Key:
GPX3 CpG sites = assay: Bisulfite sequencing of CpG sites, cell lines treated vs. untreated; format: cell-based, human; design: unit not given here; details: cell line pool
Method: (§1) Samples: Paired tumor and adjacent normal tissues from twelve colorectal cancer patients were collected under institutional review board (IRB) approval with patient consent. Tissues were flash frozen in LN2 and stored at −80° C. prior to DNA extraction. All tissues were blinded. Cell lines: A panel of five colorectal cancer cell lines was used. Cells were grown to ˜50% confluence in the appropriate culture medium prior to treatment with 5-aza-2′-deoxycytidine. Optimal concentrations and incubation times (Table 4) were determined by assaying for reduction of p16 promoter methylation using MSP. Cells were harvested, pelleted by centrifugation, and washed twice in Hanks buffered saline solution. Cell pellets were stored at −80° C. Control cells were maintained simultaneously without 5-aza-2′-deoxycytidine treatment. DNA extraction: DNA was purified from tissues and cell lines using the QIAGEN DNeasy® Tissue Kit. Approximately 25-35 mg of each tissue was pulverized under liquid nitrogen before extraction. Elution volume for tissues was 2004. A final volume of […] of cell line DNA was extracted from 15 to 254 of each packed cell pellet (between 10^6-10^7 cells). Purified DNA was stored at −20° C. Bisulfite modification: Modification was performed according to the Frommer method (See Frommer M, et al., PNAS, 89: 1827-1831 (1992).) One μg genomic DNA was diluted into 50 μl with distilled H2O, 5.5 μl of 2M NaOH was added, and the mixture incubated at 37° C. for 10 minutes (to create single stranded DNA). Thirty μl of freshly prepared 10 mM hydroquinone (Sigma) was added to each tube. Five hundred twenty μl of freshly prepared 3M sodium bisulfite (Sigma S-8890), pH 5.0 was then added. Reagents were thoroughly mixed and then covered with mineral oil and incubated at 50° C. for 16 hours. After removing the oil, 1 ml of Wizard DNA Cleanup Resin (Promega A7280) was added to each tube prior to applying the mixture to miniprep column in the DNA Wizard Cleanup kit. The column was washed with 2 ml of 80% isopropanol, and eluted with 50 μl of heated water (60-70° C.). 5.5 μl of 3 M NaOH to was added to each tube, and incubated at room temperature for 5 minutes. Then 1 μl glycogen was added as carrier, 33 μl of 10 M NH4Ac, and 3 volumes of ethanol for DNA precipitation. The pellet was spun down and washed with 70% ethanol, dried and resuspended in 20 μl water. In some instances, the EZ DNA Methylation Kit (Zymo Research) which uses a simplified version of the Frommer method was used. In these cases, 1 μg of genomic DNA was denatured in 0.3M NaOH for 15 minutes at 37° C. followed by incubation at 50° C. for 16 hours in 0.5 mM hydroquinone and a saturated solution of sodium bisulfite at pH 5. Modified DNA was bound to the Zymo column membrane, then desulfonated with 0.3M NaOH for 15 minutes at room temperature. DNA was washed and resuspended with 50 μL 10 mM Tris-HCl-0.1 mM EDTA, pH 7.5 and stored at −20° C. The bisulfite reaction results in conversion of an unmethylated cytosine to uracil. Methylated cytosine remains unchanged after the bisulfite reaction. The resulting bisulfite modified DNA is single stranded. PCR amplification for sequencing: Primers were designed to amplify both methylated and unmethylated fragments of DNA (Table 5). Five μL of modified DNA ( 1/10 of modification reaction) was amplified first in a 254, reaction volume containing 10 mM Tris-HCl pH8.3, 50 mM KCl, 1.5 mM to 2 mM MgCl2, (Applied Biosystems), 0.25 mM each dNTP, 0.5 unit AmpliTaq (Applied Biosystems), and sequencing primers (each at 200 nM). Cycling conditions were 10 minutes at 95° C., 40 cycles of 30 seconds at 95° C., 30 seconds at 54-62° C., 30 seconds at 72° C., subsequently followed by extension for 5 minutes at 72° C.
(§2) Reaction products were purified either by the shrimp-alkaline phosphatase-Exol standard method or on the Qiagen Qiaquick PCR clean-up column and eluted in 30 μL 10 mM Tris-HCl, pH8.5. […]

SCNN1B CpG sites = assay: as above; format: cell-based, human; design: unit not given here
Method: as §1, §2

Nc1ncn([C@H]2C[C@H](O)[C@@H](CO)O2)c(=O)n1 [5-aza-2′-deoxycytidine]
Sequencing results for GPX3, CpG site #25 (GPX3 CpG sites): 70 | Sequencing results for GPX3, CpG site #27 (GPX3 CpG sites): 100 | Sequencing results for GPX3, CpG site #31 (GPX3 CpG sites): 67 | Sequencing results for GPX3, CpG site #49 (GPX3 CpG sites): 70 | Sequencing results for GPX3, CpG site #56 (GPX3 CpG sites): 98 | Sequencing results for GPX3, CpG site #75 (GPX3 CpG sites): 72 | Sequencing results for GPX3, CpG site #84 (GPX3 CpG sites): 77 | Sequencing results for GPX3, CpG site #86 (GPX3 CpG sites): 74 | Sequencing results for GPX3, CpG site #101 (GPX3 CpG sites): 84 | Sequencing results for GPX3, CpG site #126 (GPX3 CpG sites): 75 | Sequencing results for GPX3, CpG site #129 (GPX3 CpG sites): 80 | Sequencing results for GPX3, CpG site #142 (GPX3 CpG sites): 97 | Sequencing results for GPX3, CpG site #146 (GPX3 CpG sites): 80 | Sequencing results for GPX3, CpG site #167 (GPX3 CpG sites): 89 | SCNN1B sequencing result (methylation) at CpG site #179 (SCNN1B CpG sites; HT29 treated): 70 | SCNN1B sequencing result (methylation) at CpG site #192 (SCNN1B CpG sites; HT29 treated): 90 | SCNN1B sequencing result (methylation) at CpG site #203 (SCNN1B CpG sites; HT29 treated): 36 | SCNN1B sequencing result (methylation) at CpG site #223 (SCNN1B CpG sites; HT29 treated): 79 | SCNN1B sequencing result (methylation) at CpG site #228 (SCNN1B CpG sites; HT29 treated): 74 | SCNN1B sequencing result (methylation) at CpG site #230 (SCNN1B CpG sites; HT29 treated): 67 | SCNN1B sequencing result (methylation) at CpG site #234 (SCNN1B CpG sites; HT29 treated): 69 | SCNN1B sequencing result (methylation) at CpG site #238 (SCNN1B CpG sites; HT29 treated): 75 | SCNN1B sequencing result (methylation) at CpG site #245 (SCNN1B CpG sites; HT29 treated): 65 | SCNN1B sequencing result (methylation) at CpG site #267 (SCNN1B CpG sites; HT29 treated): 55 | SCNN1B sequencing result (methylation) at CpG site #295 (SCNN1B CpG sites; HT29 treated): 26 | SCNN1B sequencing result (methylation) at CpG site #179 (SCNN1B CpG sites; LS123 treated): 56 | SCNN1B sequencing result (methylation) at CpG site #192 (SCNN1B CpG sites; LS123 treated): 63 | SCNN1B sequencing result (methylation) at CpG site #203 (SCNN1B CpG sites; LS123 treated): 42 | SCNN1B sequencing result (methylation) at CpG site #223 (SCNN1B CpG sites; LS123 treated): 90 | SCNN1B sequencing result (methylation) at CpG site #228 (SCNN1B CpG sites; LS123 treated): 87 | SCNN1B sequencing result (methylation) at CpG site #230 (SCNN1B CpG sites; LS123 treated): 82 | SCNN1B sequencing result (methylation) at CpG site #234 (SCNN1B CpG sites; LS123 treated): 80 | SCNN1B sequencing result (methylation) at CpG site #238 (SCNN1B CpG sites; LS123 treated): 77 | SCNN1B sequencing result (methylation) at CpG site #245 (SCNN1B CpG sites; LS123 treated): 81 | SCNN1B sequencing result (methylation) at CpG site #267 (SCNN1B CpG sites; LS123 treated): 59 | SCNN1B sequencing result (methylation) at CpG site #295 (SCNN1B CpG sites; LS123 treated): 23 | SCNN1B sequencing result (methylation) at CpG site #179 (SCNN1B CpG sites; LS174T treated): 7 | SCNN1B sequencing result (methylation) at CpG site #192 (SCNN1B CpG sites; LS174T treated): 56 | SCNN1B sequencing result (methylation) at CpG site #203 (SCNN1B CpG sites; LS174T treated): 40 | SCNN1B sequencing result (methylation) at CpG site #223 (SCNN1B CpG sites; LS174T treated): 75 | SCNN1B sequencing result (methylation) at CpG site #228 (SCNN1B CpG sites; LS174T treated): 81 | SCNN1B sequencing result (methylation) at CpG site #230 (SCNN1B CpG sites; LS174T treated): 72 | SCNN1B sequencing result (methylation) at CpG site #234 (SCNN1B CpG sites; LS174T treated): 70 | SCNN1B sequencing result (methylation) at CpG site #238 (SCNN1B CpG sites; LS174T treated): 55 | SCNN1B sequencing result (methylation) at CpG site #245 (SCNN1B CpG sites; LS174T treated): 40 | SCNN1B sequencing result (methylation) at CpG site #267 (SCNN1B CpG sites; LS174T treated): 47 | SCNN1B sequencing result (methylation) at CpG site #295 (SCNN1B CpG sites; LS174T treated): 7 | SCNN1B sequencing result (methylation) at CpG site #179 (SCNN1B CpG sites; SW480 treated): 80 | SCNN1B sequencing result (methylation) at CpG site #192 (SCNN1B CpG sites; SW480 treated): 44 | SCNN1B sequencing result (methylation) at CpG site #203 (SCNN1B CpG sites; SW480 treated): 21 | SCNN1B sequencing result (methylation) at CpG site #223 (SCNN1B CpG sites; SW480 treated): 89 | SCNN1B sequencing result (methylation) at CpG site #228 (SCNN1B CpG sites; SW480 treated): 83 | SCNN1B sequencing result (methylation) at CpG site #230 (SCNN1B CpG sites; SW480 treated): 80 | SCNN1B sequencing result (methylation) at CpG site #234 (SCNN1B CpG sites; SW480 treated): 80 | SCNN1B sequencing result (methylation) at CpG site #238 (SCNN1B CpG sites; SW480 treated): 87 | SCNN1B sequencing result (methylation) at CpG site #245 (SCNN1B CpG sites; SW480 treated): 51 | SCNN1B sequencing result (methylation) at CpG site #267 (SCNN1B CpG sites; SW480 treated): 57 | SCNN1B sequencing result (methylation) at CpG site #295 (SCNN1B CpG sites; SW480 treated): 69 | SCNN1B sequencing result (methylation) at CpG site #179 (SCNN1B CpG sites; SW620 treated): 59 | SCNN1B sequencing result (methylation) at CpG site #192 (SCNN1B CpG sites; SW620 treated): 88 | SCNN1B sequencing result (methylation) at CpG site #203 (SCNN1B CpG sites; SW620 treated): 30 | SCNN1B sequencing result (methylation) at CpG site #223 (SCNN1B CpG sites; SW620 treated): 93 | SCNN1B sequencing result (methylation) at CpG site #228 (SCNN1B CpG sites; SW620 treated): 95 | SCNN1B sequencing result (methylation) at CpG site #230 (SCNN1B CpG sites; SW620 treated): 94 | SCNN1B sequencing result (methylation) at CpG site #234 (SCNN1B CpG sites; SW620 treated): 91 | SCNN1B sequencing result (methylation) at CpG site #238 (SCNN1B CpG sites; SW620 treated): 86 | SCNN1B sequencing result (methylation) at CpG site #245 (SCNN1B CpG sites; SW620 treated): 26 | SCNN1B sequencing result (methylation) at CpG site #267 (SCNN1B CpG sites; SW620 treated): 67 | SCNN1B sequencing result (methylation) at CpG site #295 (SCNN1B CpG sites; SW620 treated): 23
